pIC50: −log10 of the molar value.
Target: human recombinant P2X7 receptor (Homo sapiens (Human), UniProt Q99572)
Experiment: YO-PRO assay: P2X7 receptor antagonistic activity
Format: cell-based
Conditions: HEK cells expressing human P2X7

Sequence of human recombinant P2X7 receptor (Q99572 whole entry): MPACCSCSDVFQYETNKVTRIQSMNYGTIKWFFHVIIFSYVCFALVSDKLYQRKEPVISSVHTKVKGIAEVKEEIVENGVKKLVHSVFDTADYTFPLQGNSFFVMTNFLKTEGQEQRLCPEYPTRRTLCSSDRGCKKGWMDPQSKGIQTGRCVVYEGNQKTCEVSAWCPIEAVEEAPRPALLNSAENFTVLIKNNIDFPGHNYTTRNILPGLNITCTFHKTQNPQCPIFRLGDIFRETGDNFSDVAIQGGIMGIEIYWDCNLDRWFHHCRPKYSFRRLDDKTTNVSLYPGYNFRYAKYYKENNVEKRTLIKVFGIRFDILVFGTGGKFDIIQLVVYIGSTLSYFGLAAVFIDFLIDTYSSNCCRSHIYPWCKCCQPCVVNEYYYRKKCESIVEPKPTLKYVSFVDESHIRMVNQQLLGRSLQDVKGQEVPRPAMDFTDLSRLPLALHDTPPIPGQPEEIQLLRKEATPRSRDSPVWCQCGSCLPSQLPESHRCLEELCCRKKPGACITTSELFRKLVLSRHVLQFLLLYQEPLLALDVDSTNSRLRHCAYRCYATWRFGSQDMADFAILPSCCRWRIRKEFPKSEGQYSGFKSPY

SMILES	pIC50
Cc1cc(Cl)cc(Cl)c1CC(=O)NC1COc2cnccc21 (racemic) [Example 89, rac-2-(2,4-Dichloro-6-methyl-phenyl)-N-(2,3-dihydro-furo[2,3-c]pyridin-3-yl)-acetamide]	8.49
N#Cc1c(F)ccc(CC(=O)NC2COc3ncccc32)c1Cl (racemic) [Example 107, rac-2-(2-Chloro-3-cyano-4-fluoro-phenyl)-N-(2,3-dihydro-furo[2,3-b]pyridin-3-yl)-acetamide]	7.51
Cc1ccnn1CC(=O)NC1CCOc2ncccc21 (racemic) [Example 63, rac-N-(3,4-Dihydro-2H-pyrano[2,3-b]pyridin-4-yl)-2-(5-methyl-pyrazol-1-yl)-acetamide]	< 5.24
O=C(Cc1ccc(F)cc1F)NC1COc2ncccc21 (racemic) [Example 17, rac-2-(2,4-Difluoro-phenyl)-N-(2,3-dihydro-furo[2,3-b]pyridin-3-yl)-acetamide]	6.28
Cc1ccc(CC(=O)NC2COc3ncccc32)cc1 (racemic) [Example 14, rac-N-(2,3-Dihydro-furo[2,3-b]pyridin-3-yl)-2-p-tolyl-acetamide]	< 5.26
O=C(Cc1ccc(C(F)(F)F)cc1Cl)NC1COc2ncccc21 (racemic) [Example 88, rac-2-(2-Chloro-4-trifluoromethyl-phenyl)-N-(2,3-dihydro-furo[2,3-b]pyridin-3-yl)-acetamide]	7.14
O=C(Cc1cccc(C(F)(F)F)c1Cl)NC1COc2ncccc21 (single isomer, unassigned) [Example 74, 2-(2-Chloro-3-trifluoromethyl-phenyl)-N-(2,3-dihydro-furo[2,3-b]pyridin-3-yl)-acetamide]	8.33
Cc1cc(Cl)cc(Cl)c1CC(=O)NC1CCOc2ncccc21 (racemic) [Example 8, rac-2-(2,4-Dichloro-6-methyl-phenyl)-N-(3,4-dihydro-2H-pyrano[2,3-b]pyridin-4-yl)-acetamide]	7.37
O=C(Cc1ccccc1Cl)NC1CCOc2ncccc21 (racemic) [Example 44, rac-2-(2-Chloro-phenyl)-N-(3,4-dihydro-2H-pyrano[2,3-b]pyridin-4-yl)-acetamide]	5.70
O=C(Cc1cccc(C(F)(F)F)c1Cl)NC1COc2nccc(C(F)(F)F)c21 (racemic) [Example 152, rac-2-(2-Chloro-3-trifluoromethyl-phenyl)-N-(4-trifluoromethyl-2,3-dihydro-furo[2,3-b]pyridin-3-yl)-acetamide]	6.06
O=C(Cc1ccc(F)cc1C(F)(F)F)NC1CCOc2ncccc21 (racemic) [Example 52, rac-N-(3,4-Dihydro-2H-pyrano[2,3-b]pyridin-4-yl)-2-(4-fluoro-2-trifluoromethyl-phenyl)-acetamide]	5.73
O=C(Cc1ccc(C(F)(F)F)cc1)NC1CCOc2ncccc21 (racemic) [Example 46, rac-N-(3,4-Dihydro-2H-pyrano[2,3-b]pyridin-4-yl)-2-(4-trifluoromethyl-phenyl)-acetamide]	5.87
O=C(Cc1c(Cl)cc(Cl)cc1C1CC1)NC1COc2ncccc21 (racemic) [Example 39, rac-2-(2,4-Dichloro-6-cyclopropyl-phenyl)-N-(2,3-dihydro-furo[2,3-b]pyridin-3-yl)-acetamide]	7.27
O=C(Cc1cccc(C(F)(F)F)c1Cl)NC1COc2cnccc21 (racemic) [Example 87, rac-2-(2-Chloro-3-trifluoromethyl-phenyl)-N-(2,3-dihydro-furo[2,3-c]pyridin-3-yl)-acetamide]	8.34
O=C(Cc1c(Cl)ccc(C(F)(F)F)c1Cl)NC1COc2ncccc21 (racemic) [Example 72, rac-2-(2,6-Dichloro-3-trifluoromethyl-phenyl)-N-(2,3-dihydro-furo[2,3-b]pyridin-3-yl)-acetamide]	5.99
O=C(Cc1cccc(C(F)(F)F)c1Cl)NC1COc2cncc(C3CC3)c21 (racemic) [Example 132, rac-2-(2-Chloro-3-trifluoromethyl-phenyl)-N-(4-cyclopropyl-2,3-dihydro-furo[2,3-c]pyridin-3-yl)-acetamide]	6.30

SMILES	pIC50
Cc1ccc(OCC(=O)NC2COc3ncccc32)c(C)c1 (racemic) [Example 142, rac-N-(2,3-Dihydro-furo[2,3-b]pyridin-3-yl)-2-(2,4-dimethyl-phenoxy)-acetamide]	< 5.00
O=C(Cc1cccc(C(F)(F)F)c1F)NC1COc2ncccc21 (racemic) [Example 90, rac-N-(2,3-Dihydro-furo[2,3-b]pyridin-3-yl)-2-(2-fluoro-3-trifluoromethyl-phenyl)-acetamide]	7.04
Cc1ccccc1CC(=O)NC1COc2ncccc21 (racemic) [Example 11, rac-N-(2,3-Dihydro-furo[2,3-b]pyridin-3-yl)-2-o-tolyl-acetamide]	5.88
CC(C(=O)NC1COc2ncccc21)c1ccc(Cl)cc1Cl (centres unmarked) [Example 85, 2-(2,4-Dichloro-phenyl)-N-2,3-dihydro-furo[2,3-b]pyridin-3-yl-propionamide]	7.82
O=C(Cc1cc(F)c(Cl)cc1Cl)NC1COc2ncccc21 (racemic) [Example 41, rac-2-(2,4-Dichloro-5-fluoro-phenyl)-N-(2,3-dihydro-furo[2,3-b]pyridin-3-yl)-acetamide]	6.48
Cc1cc(Cl)cc(Cl)c1CC(=O)NC1COc2cnccc21 (single isomer, unassigned) [Example 102, 2-(2,4-Dichloro-6-methyl-phenyl)-N-2,3-dihydro-furo[2,3-c]pyridin-3-yl-acetamide]	8.66
O=C(Cc1cccnc1Cl)NC1CCOc2ncccc21 (racemic) [Example 60, rac-2-(2-Chloro-pyridin-3-yl)-N-(3,4-dihydro-2H-pyrano[2,3-b]pyridin-4-yl)-acetamide]	6.11
O=C(Cc1cccc(C(F)(F)F)c1Cl)NC1COc2ncccc21 (racemic) [Example 34, rac-2-(2-Chloro-3-trifluoromethyl-phenyl)-N-(2,3-dihydro-furo[2,3-b]pyridin-3-yl)-acetamide]	8.13
O=C(NC1CCOc2ncccc21)C1(c2ccc(F)cc2Cl)CCCC1 (racemic) [Example 59, rac-1-(2-Chloro-4-fluoro-phenyl)-cyclopentanecarboxylic acid (3,4-dihydro-2H-pyrano[2,3-b]pyridin-4-yl)-amide]	6.41
O=C(Cc1ccc(F)cc1C(F)(F)F)NC1COc2ncccc21 (racemic) [Example 18, rac-N-(2,3-Dihydro-furo[2,3-b]pyridin-3-yl)-2-(4-fluoro-2-trifluoromethyl-phenyl)-acetamide]	6.41
O=C(Cc1c(Cl)ccc(Cl)c1F)NC1COc2ncccc21 (racemic) [Example 77, rac-2-(3,6-Dichloro-2-fluoro-phenyl)-N-(2,3-dihydro-furo[2,3-b]pyridin-3-yl)-acetamide]	5.61
Cc1cc(Cl)cc(Cl)c1CC(=O)NC1COc2nnccc21 (racemic) [Example 110, rac-2-(2,4-Dichloro-6-methyl-phenyl)-N-(5,6-dihydro-furo[2,3-c]pyridazin-5-yl)-acetamide]	8.17
Cc1cc(Cl)cc(Cl)c1CC(=O)NC1COc2ncccc21 (single isomer, unassigned) [Example 6, 2-(2,4-Dichloro-6-methyl-phenyl)-N-(2,3-dihydro-furo[2,3-b]pyridin-3-yl)-acetamide]	7.80
Cc1cc(Cl)cc(Cl)c1CC(=O)NC1COc2ncccc21 (racemic) [Example 5, rac-2-(2,4-Dichloro-6-methyl-phenyl)-N-(2,3-dihydro-furo[2,3-b]pyridin-3-yl)-acetamide]	7.92
O=C(Cc1ccc(Cl)cc1Cl)NC1COc2cnc(Cl)cc21 (racemic) [Example 116, rac-N-(5-Chloro-2,3-dihydro-furo[2,3-c]pyridin-3-yl)-2-(2,4-dichloro-phenyl)-acetamide]	6.46
Cc1ccc2c(n1)OCC2NC(=O)Cc1c(C)cc(Cl)cc1Cl (racemic) [Example 133, rac-2-(2,4-Dichloro-6-methyl-phenyl)-N-(6-methyl-2,3-dihydro-furo[2,3-b]pyridin-3-yl)-acetamide]	7.37
